In US20260265233A1, “BENZOTHIOPHENE DERIVATIVES AS RXFP1 AGONISTS” (BRISTOL-MYERS SQUIBB COMPANY, priority 2021, published 2026):

Biological target: T1, human RXFP1 (Homo sapiens, UniProt Q9HBX9)
T1 construct: expressed in transfected cells
T1 sequence (Q9HBX9 1-757): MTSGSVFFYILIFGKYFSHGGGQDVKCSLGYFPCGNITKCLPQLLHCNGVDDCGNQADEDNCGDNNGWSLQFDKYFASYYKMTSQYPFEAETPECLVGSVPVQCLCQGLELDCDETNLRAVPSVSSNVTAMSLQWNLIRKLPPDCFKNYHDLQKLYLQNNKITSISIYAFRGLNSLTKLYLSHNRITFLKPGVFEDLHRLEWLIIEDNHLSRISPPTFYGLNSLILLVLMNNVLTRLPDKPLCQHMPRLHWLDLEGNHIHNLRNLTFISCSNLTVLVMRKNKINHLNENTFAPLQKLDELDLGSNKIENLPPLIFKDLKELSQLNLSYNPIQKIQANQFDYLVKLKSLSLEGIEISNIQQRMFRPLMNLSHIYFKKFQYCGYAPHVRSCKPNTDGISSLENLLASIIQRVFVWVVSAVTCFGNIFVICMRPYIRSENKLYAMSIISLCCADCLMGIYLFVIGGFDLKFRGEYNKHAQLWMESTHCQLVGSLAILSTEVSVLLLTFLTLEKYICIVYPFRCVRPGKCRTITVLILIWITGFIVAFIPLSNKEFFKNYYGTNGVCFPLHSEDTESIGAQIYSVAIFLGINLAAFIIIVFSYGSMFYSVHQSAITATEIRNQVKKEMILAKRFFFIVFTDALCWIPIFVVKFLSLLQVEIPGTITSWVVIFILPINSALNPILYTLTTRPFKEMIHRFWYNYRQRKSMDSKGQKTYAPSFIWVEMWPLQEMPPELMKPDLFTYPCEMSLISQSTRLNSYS
Assay: hRXFP1 HEK293 cAMP assay (HTRF)
Format: cell-based
Conditions: HEK293 cells stably expressing human RXFP1; 30 min at rt; intracellular cAMP by HTRF
Summary of the method: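 Agonism is measured as cAMP by HTRF, quantified from a standard curve via the 665/590 nm ratio and fitted with a four-parameter logistic equation. Compounds (0.010 nM to 50 μM final, 2% DMSO) were applied for 30 min at rt to human RXFP1-expressing HEK293 cells in assay buffer containing 0.5 mM IBMX.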

SMILES	EC50
COc1ccc(C2CCN(C3COC3)C2)cc1C(=O)Nc1c(C(=O)Nc2ccc(F)c(C(F)(F)F)c2)sc2cc(C(F)(F)F)ccc12 (stereo not shown) [Example 154, N-(4-fluoro-3-(trifluoromethyl)phenyl)-3-(2-methoxy-5-(1-(oxetan-3-yl)pyrrolidin-3-yl)benzamido)-6-(trifluoromethyl) benzo[b] thiophene-2-carboxamide]	553 nM
COc1ccc(C(=O)N2CC3(C2)CS(=O)(=O)C3)cc1C(=O)Nc1c(C(=O)Nc2ccc(F)c(C(F)(F)F)c2)sc2cc(C(F)(F)F)ccc12 [Example 130, 3-(5-(2,2-dioxido-2-thia-6-azaspiro[3.3]heptane-6-carbonyl)-2-methoxy-benzamido)-N-(4-fluoro-3-(trifluoromethyl)phenyl)-6-(trifluoromethyl) benzo[b] thiophene-2-carboxamide]	279 nM
COc1ccc(C2=NOC(C)(CO)C2)cc1C(=O)Nc1c(C(=O)Nc2ccc(F)c(C(F)(F)F)c2)sc2cc(C(F)(F)F)ccc12 (single isomer, unassigned) [Example 254, N-(4-fluoro-3-(trifluoromethyl)phenyl)-3-(5-(5-(hydroxymethyl)-5-methyl-4,5-dihydroisoxazol-3-yl)-2-methoxy-benzamido)-6-(trifluoromethyl) benzo[b] thiophene-2-carboxamide]	1020 nM
COCC(=O)N1CCC(c2ccc(OC)c(C(=O)Nc3c(C(=O)Nc4ccc(F)c(C(F)(F)F)c4)sc4cc(C(F)(F)F)ccc34)c2)C1 (stereo not shown) [Example 144, N-(4-fluoro-3-(trifluoromethyl)phenyl)-3-(2-methoxy-5-(1-(2-methoxyacetyl)pyrrolidin-3-yl)benzamido)-6-(trifluoromethyl) benzo[b] thiophene-2-carboxamide]	1430 nM
COc1ncc(N2CC3(COC3)C2)cc1C(=O)Nc1c(C(=O)Nc2ccc(F)c(C(F)(F)F)c2)sc2cc(C(F)(F)F)ccc12 [Example 233, N-(2-((4-fluoro-3-(trifluoromethyl)phenyl)carbamoyl)-6-(trifluoromethyl)benzo[b]thiophen-3-yl)-2-methoxy-5-(2-oxa-6-azaspiro[3.3]heptan-6-yl)nicotinamide]	4650 nM
COc1ccc(-c2cc(C(=O)O)ccc2F)cc1C(=O)Nc1c(C(=O)Nc2ccc(F)c(C(F)(F)F)c2)sc2ncccc12 [Example 289, 6-fluoro-3′-[(2-{[4-fluoro-3-(trifluoromethyl)phenyl]carbamoyl}thieno[2,3-b]pyridin-3-yl)carbamoyl]-4′-methoxy-[1,1′-biphenyl]-3-carboxylic acid]	2050 nM
COc1ccc(-c2cc(C(C)(C)O)on2)cc1C(=O)Nc1c(C(=O)Nc2ccc(F)c(C(F)(F)F)c2)sc2cc(C(F)(F)F)ccc12 [Example 276, N-(4-fluoro-3-(trifluoromethyl)phenyl)-3-(5-(5-(2-hydroxypropan-2-yl)isoxazol-3-yl)-2-methoxy-benzamido)-6-(trifluoromethyl) benzo[b] thiophene-2-carboxamide]	204 nM
COc1ccc(C(=O)N2CC[C@@H](O)C2)cc1C(=O)Nc1c(C(=O)Nc2ccc(F)c(C(F)(F)F)c2)sc2cc(Cl)ncc12 [Example 199, (R)-6-chloro-N-(4-fluoro-3-(trifluoromethyl)phenyl)-3-(5-(3-hydroxypyrrolidine-1-carbonyl)-2-methoxy-benzamido) thieno[3,2-c]pyridine-2-carboxamide]	690 nM

More lines, in order of falling EC50, values ahead:

EC50	SMILES
3130 nM	COc1ccc(C2=NOC3CC(NC(=O)C(C)(C)O)CC23)cc1C(=O)Nc1c(C(=O)Nc2ccc(F)c(C(F)(F)F)c2)sc2cc(C(F)(F)F)ccc12 (single isomer, unassigned) [Example 267, N-[4-fluoro-3-(trifluoromethyl)phenyl]-3-{5-[5-(2-hydroxy-2-methyl-propanamido)-3aH,4H,5H,6H, 6aH-cyclopenta[d] [1,2]oxazol-3-yl]-2-methoxy-benzamido}-6-(trifluoromethyl)-1-benzothiophene-2-carboxamide]
2410 nM	COc1ccc(C2=NOC3CC(NC(=O)CO)CC23)cc1C(=O)Nc1c(C(=O)Nc2ccc(F)c(C(F)(F)F)c2)sc2cc(C(F)(F)F)ccc12 (single isomer, unassigned) [Example 266, N-[4-fluoro-3-(trifluoromethyl)phenyl]-3-{5-[5-(2-hydroxyacetamido)-3aH,4H,5H,6H, 6aH-cyclopenta[d] [1,2]oxazol-3-yl]-2-methoxy-benzamido}-6-(trifluoromethyl)-1-benzothiophene-2-carboxamide]
661 nM	COc1ccc(N2CCCC(C(=O)NCC(C)(C)O)C2)cc1C(=O)Nc1c(C(=O)Nc2ccc(F)c(C(F)(F)F)c2)sc2cc(C(F)(F)F)ccc12 (single isomer, unassigned) [Example 7, 1-(3-((2-((4-fluoro-3-(trifluoromethyl)phenyl)carbamoyl)-6-(trifluoromethyl)benzo[b]thiophen-3-yl)carbamoyl)-4-methoxyphenyl)-N-(2-hydroxy-2-methylpropyl) piperidine-3-carboxamide]
634 nM	COc1ccc(C2CCN(C(=O)C3CC3(F)F)C2)cc1C(=O)Nc1c(C(=O)Nc2ccc(F)c(C(F)(F)F)c2)sc2cc(C(F)(F)F)ccc12 (stereo not shown) [Example 134, 3-(5-(1-(2,2-difluorocyclo-propane-1-carbonyl)pyrrolidin-3-yl)-2-methoxy-benzamido)-N-(4-fluoro-3-(trifluoromethyl)phenyl)-6-(trifluoromethyl) benzo[b] thiophene-2-carboxamide]
346 nM	COc1ccc(C(=O)N2CC(O)C2)cc1C(=O)Nc1c(C(=O)Nc2ccc(F)c(C(F)(F)F)c2)sc2cc(C(F)(F)F)ccc12 [Example 191, N-(4-fluoro-3-(trifluoromethyl)phenyl)-3-(5-(3-hydroxyazetidine-1-carbonyl)-2-methoxy-benzamido)-6-(trifluoromethyl) benzo[b] thiophene-2-carboxamide]
306 nM	COc1ccc(C2=NOC3CN(CC(C)(C)O)CC23)cc1C(=O)Nc1c(C(=O)Nc2ccc(F)c(C(F)(F)F)c2)sc2cc(C(F)(F)F)ccc12 (single isomer, unassigned) [Example 54, N-(4-fluoro-3-(trifluoromethyl)phenyl)-3-(5-(5-(2-hydroxy-2-methylpropyl)-3a, 5,6,6a-tetrahydro-4H-pyrrolo[3,4-d]isoxazol-3-yl)-2-methoxybenzamido)-6-(trifluoromethyl)benzo[b]thiophene-2-carboxamide]
111 nM	COc1ccc(N2CCCCS2(=O)=O)cc1C(=O)Nc1c(C(=O)Nc2ccc(F)c(C(F)(F)F)c2)sc2cc(C(F)(F)F)ccc12 [Example 10, 3-(5-(1,1-dioxido-1,2-thiazinan-2-yl)-2-methoxybenzamido)-N-(4-fluoro-3-(trifluoromethyl)phenyl)-6-(trifluoromethyl)benzo[b]thiophene-2-carboxamide]
102 nM	COc1cc(F)c(C(=O)NCC2(S(C)(=O)=O)CC2)cc1C(=O)Nc1c(C(=O)Nc2ccc(F)c(C(F)(F)F)c2)sc2cc(C(F)(F)F)ccc12 [Example 186, 4-fluoro-N1-(2-((4-fluoro-3-(trifluoromethyl)phenyl)carbamoyl)-6-(trifluoromethyl)benzo[b]thiophen-3-yl)-6-methoxy-N3-((1-(methylsulfonyl)cyclopropyl)methyl) isophthalamide]
